Test system: patients with stable coronary artery disease (CAD)
Test: PET/CT myocardial perfusion imaging in patients with stable CAD, compared with 99mTc Sestamibi SPECT and CTA
Type: in vivo, human
Conditions: for detecting areas of reversible myocardial perfusion: PET with FTPP vs SPECT with 99mTc Sestamibi, baseline and post-adenosine
Method: One of the objectives of this study: the PET image properties of FTPP as a myocardial perfusion agent were evaluated in patients with stable coronary artery disease (CAD).
Patients with stable CAD were included in a 3 day study protocol. Safety endpoints included vital signs, 12 lead ECG and clinical laboratory tests. Imaging was performed with Siemens Biograph 64 PET/CT scanner and imaging entailed a CT for positioning, attenuation measurement and evaluation of coronary artery anatomy (day-1). This was followed by baseline and post-adenosine SPECT imaging with ^99mTc Sestamibi. On day 2, 10 mCi of FTPP was administered followed by a second 10 mCi dose of FTPP and PET/CT imaging.

Row | SMILES | detecting areas of reversible myocardial perfusion | image resolution, stress PET vs stress MIBI SPECT (FIG. 2, person with chest pain) | stress images, detection of ischemia (FIG. 3, stress images) | extraction from blood (patients with stable CAD) | heart uptake over time (patients with stable CAD) | imaging window after injection (patients with stable CAD) | target-to-background ratios (patients with stable CAD) | blood flow imaging properties (patients with stable CAD, preliminary findings) | safety (vital signs, 12 lead ECG, clinical laboratory tests)
1 | [C-]#[N+]CC(C)(C)OC.[C-]#[N+]CC(C)(C)OC.[C-]#[N+]CC(C)(C)OC.[C-]#[N+]CC(C)(C)OC.[C-]#[N+]CC(C)(C)OC.[C-]#[N+]CC(C)(C)OC.[Tc] [^99mTc Sestamibi, reference compound] | similarly effective |  |  |  |  |  |  |  | 
2 | Fc1ccc([P+](c2ccccc2)(c2ccccc2)c2ccccc2)cc1 [FTPP, 4-[^18F]Fluorophenyltriphenylphosphonium ion] | similarly effective | high resolution | confirming ischemia | rapid | stable | ≤ 30 min | high | excellent | safe
